Results taken from paper PMC10927578, “Structural basis for CFTR inhibition by CFTRinh-172” (Proceedings of the National Academy of Sciences of the …, 2024).

Assays:
S1141A CFTR = target: T1, S1141A CFTR (Homo sapiens, UniProt P13569, S1141A); assay: Inside-out excised patch titration, S1141A CFTR; assay type: biochemical; details: inside-out patches, 3 mM ATP
T1 construct: expressed in transfected cells; host or cells: CHO-K1 (ATCC CCL-61)

WT CFTR [1] = target: T2, WT CFTR (Homo sapiens, UniProt P13569); assay: Inside-out excised patch macroscopic current recording, WT CFTR; assay type: biochemical; details: inside-out patches, 3 mM ATP
T2 construct: GFP (PreScission Protease-cleavable) (C, cleaved yes); made in house; host or cells: HEK293S GnTI- suspension cells infected with BacMam baculovirus
T2 sequence (P13569 whole entry): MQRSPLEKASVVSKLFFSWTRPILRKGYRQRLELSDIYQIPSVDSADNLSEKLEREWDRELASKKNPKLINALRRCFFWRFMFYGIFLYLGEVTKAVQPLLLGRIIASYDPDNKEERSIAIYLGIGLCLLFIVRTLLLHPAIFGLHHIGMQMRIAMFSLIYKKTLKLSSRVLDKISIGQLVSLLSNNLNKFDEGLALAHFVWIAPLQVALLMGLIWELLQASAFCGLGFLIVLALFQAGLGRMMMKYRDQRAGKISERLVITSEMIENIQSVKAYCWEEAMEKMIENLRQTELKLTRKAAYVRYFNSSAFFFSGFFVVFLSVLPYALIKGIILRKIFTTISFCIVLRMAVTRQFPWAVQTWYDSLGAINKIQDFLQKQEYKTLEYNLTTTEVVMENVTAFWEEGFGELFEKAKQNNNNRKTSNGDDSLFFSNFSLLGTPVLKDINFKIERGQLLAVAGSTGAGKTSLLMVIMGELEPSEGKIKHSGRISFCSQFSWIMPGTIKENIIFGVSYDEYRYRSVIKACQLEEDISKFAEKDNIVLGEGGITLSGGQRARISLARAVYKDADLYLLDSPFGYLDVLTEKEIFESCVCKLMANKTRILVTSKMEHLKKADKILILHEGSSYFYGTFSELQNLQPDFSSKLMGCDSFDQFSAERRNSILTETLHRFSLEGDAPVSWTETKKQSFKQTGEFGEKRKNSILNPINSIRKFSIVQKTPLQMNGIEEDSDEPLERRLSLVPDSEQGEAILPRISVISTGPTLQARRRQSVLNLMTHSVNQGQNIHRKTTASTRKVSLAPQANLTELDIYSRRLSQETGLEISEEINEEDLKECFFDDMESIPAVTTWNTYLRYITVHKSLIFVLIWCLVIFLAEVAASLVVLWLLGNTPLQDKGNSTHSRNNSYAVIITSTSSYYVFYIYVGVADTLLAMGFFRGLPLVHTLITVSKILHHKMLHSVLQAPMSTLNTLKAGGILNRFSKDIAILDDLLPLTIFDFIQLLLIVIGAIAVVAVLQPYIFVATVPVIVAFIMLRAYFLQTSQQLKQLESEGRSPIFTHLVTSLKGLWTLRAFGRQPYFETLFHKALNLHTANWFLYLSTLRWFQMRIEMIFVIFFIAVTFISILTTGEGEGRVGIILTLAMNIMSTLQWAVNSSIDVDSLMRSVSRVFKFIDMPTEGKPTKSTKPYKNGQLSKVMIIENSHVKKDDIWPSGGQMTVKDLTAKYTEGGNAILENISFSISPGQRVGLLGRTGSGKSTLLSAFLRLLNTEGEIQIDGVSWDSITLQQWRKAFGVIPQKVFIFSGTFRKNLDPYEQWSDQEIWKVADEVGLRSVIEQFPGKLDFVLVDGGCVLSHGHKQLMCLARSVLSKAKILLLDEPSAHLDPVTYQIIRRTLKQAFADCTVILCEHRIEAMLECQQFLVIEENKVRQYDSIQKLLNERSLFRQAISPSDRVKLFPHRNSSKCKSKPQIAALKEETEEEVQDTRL

CFTR R347A = test system: CFTR R347A; design: method as in PMID 18366345; details: R347A vs WT CFTR; cited from earlier work
WT CFTR [2] = target: T2, WT CFTR; assay: Single-channel recording in synthetic planar lipid bilayer, WT CFTR; assay type: biochemical
CFTR (E1371Q) [3] = target: T3, CFTR (E1371Q) (Homo sapiens, UniProt P13569, E1371Q); assay: Inside-out excised patch macroscopic current recording, CFTR (E1371Q); assay type: biochemical; details: 10 µM CFTRinh-172; inside-out patches; PKA-phosphorylated, 3 mM ATP
T3 construct: expressed in transfected cells; host or cells: CHO-K1 (ATCC CCL-61)
T3 sequence (P13569 whole entry E1371Q): as the sequence (P13569 whole entry) above, with E1371Q counted along it

[4] = test system: cholera toxin-induced intestinal fluid secretion; details: in vivo; cited from earlier work
[5] = target: T4, PKA-phosphorylated WT CFTR (Homo sapiens, UniProt P13569); assay: Steady-state ATP hydrolysis, NADH-coupled assay; assay type: biochemical; details: 10 µM CFTRinh-172
T4 construct: GFP (PreScission Protease-cleavable) (C, cleaved yes); made in house; host or cells: HEK293S GnTI- suspension cells infected with BacMam baculovirus
T4 sequence (P13569 whole entry): as the sequence (P13569 whole entry) above

K95A CFTR = target: T5, K95A CFTR (Homo sapiens, UniProt P13569, K95A); assay: Inside-out excised patch titration, K95A CFTR; assay type: biochemical; details: inside-out patches, 3 mM ATP, Hill coefficient fixed to 1
T5 construct: expressed in transfected cells; host or cells: CHO-K1 (ATCC CCL-61)
T5 sequence (P13569 whole entry K95A): as the sequence (P13569 whole entry) above, with K95A counted along it

CFTR (E1371Q) [6] = target: T6, CFTR (E1371Q) (Homo sapiens, UniProt P13569, C128S/C1344S/C1355S/C1395S/C1400S/C1410S/C1458S/C225S/C276S/C343S/C491S/C592M/C647S/C76L/C832S/C866S/E1371Q/S1435C/T388C); assay: smFRET imaging of NBD dimerization, CFTR (E1371Q); assay type: biochemical; details: with CFTRinh-172
T6 construct: GFP (PreScission Protease-cleavable) (C); made in house; host or cells: HEK293S GnTI- suspension cells infected with BacMam baculovirus
T6 sequence (P13569 1-1480 with the stated changes): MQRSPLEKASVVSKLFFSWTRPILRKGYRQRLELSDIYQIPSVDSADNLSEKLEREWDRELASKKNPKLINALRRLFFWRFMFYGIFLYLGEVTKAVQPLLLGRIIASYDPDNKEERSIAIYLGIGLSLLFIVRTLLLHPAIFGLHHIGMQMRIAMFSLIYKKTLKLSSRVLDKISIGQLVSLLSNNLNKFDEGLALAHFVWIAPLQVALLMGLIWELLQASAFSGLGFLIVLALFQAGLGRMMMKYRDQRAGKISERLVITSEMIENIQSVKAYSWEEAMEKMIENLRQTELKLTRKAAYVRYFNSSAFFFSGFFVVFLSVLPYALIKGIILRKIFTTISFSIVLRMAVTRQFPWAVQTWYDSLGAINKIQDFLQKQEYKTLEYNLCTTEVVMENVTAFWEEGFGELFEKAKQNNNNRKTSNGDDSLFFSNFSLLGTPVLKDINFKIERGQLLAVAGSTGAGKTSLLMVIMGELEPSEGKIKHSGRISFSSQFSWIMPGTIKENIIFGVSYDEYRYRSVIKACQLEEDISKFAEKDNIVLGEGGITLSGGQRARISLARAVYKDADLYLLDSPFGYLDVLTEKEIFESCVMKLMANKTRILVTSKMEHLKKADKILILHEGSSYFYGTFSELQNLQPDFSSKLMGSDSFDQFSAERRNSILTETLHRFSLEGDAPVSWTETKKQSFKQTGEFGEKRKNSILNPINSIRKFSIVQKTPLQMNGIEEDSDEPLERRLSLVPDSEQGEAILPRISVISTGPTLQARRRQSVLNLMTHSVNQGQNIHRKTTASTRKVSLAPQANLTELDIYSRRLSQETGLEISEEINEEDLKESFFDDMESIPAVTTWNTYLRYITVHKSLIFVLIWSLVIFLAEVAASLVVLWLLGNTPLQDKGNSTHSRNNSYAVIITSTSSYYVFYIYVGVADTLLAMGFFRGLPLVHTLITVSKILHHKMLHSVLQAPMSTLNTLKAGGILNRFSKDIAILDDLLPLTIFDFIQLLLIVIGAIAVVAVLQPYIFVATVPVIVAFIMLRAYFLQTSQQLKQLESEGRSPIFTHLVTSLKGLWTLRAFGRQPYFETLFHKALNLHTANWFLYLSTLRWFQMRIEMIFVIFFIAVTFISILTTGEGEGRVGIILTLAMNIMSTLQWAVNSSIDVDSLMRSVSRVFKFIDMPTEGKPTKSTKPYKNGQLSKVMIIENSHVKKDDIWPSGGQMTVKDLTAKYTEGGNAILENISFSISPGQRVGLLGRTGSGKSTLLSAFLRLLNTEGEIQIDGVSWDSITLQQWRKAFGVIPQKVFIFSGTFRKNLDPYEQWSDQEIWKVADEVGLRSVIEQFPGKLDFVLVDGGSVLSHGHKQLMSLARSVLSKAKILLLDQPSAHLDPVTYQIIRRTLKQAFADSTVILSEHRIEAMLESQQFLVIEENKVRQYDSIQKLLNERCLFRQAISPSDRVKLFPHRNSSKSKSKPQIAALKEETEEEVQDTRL

CFTR (E1371Q) [7] = target: T3, CFTR (E1371Q); assay: Single-channel recording in synthetic planar lipid bilayer, CFTR (E1371Q); assay type: biochemical; details: 10 µM CFTRinh-172, 3 mM ATP, -150 mV, mean and SE, 0.79 ± 0.03 without inhibitor
cyst growth = test system: cyst growth; design: method as in PMID 18385427; details: animal models of polycystic kidney disease; cited from earlier work
WT CFTR [8] = target: T7, WT CFTR (Homo sapiens, UniProt P13569, C128S/C1344S/C1355S/C1395S/C1400S/C1410S/C1458S/C225S/C276S/C343S/C491S/C592M/C647S/C76L/C832S/C866S/S1435C/T388C); assay: smFRET imaging of NBD dimerization, WT CFTR; assay type: biochemical; details: 10 µM CFTRinh-172, 3 mM ATP
T7 construct: GFP (PreScission Protease-cleavable) (C); made in house; host or cells: HEK293S GnTI- suspension cells infected with BacMam baculovirus
T7 sequence (P13569 1-1480 with the stated changes): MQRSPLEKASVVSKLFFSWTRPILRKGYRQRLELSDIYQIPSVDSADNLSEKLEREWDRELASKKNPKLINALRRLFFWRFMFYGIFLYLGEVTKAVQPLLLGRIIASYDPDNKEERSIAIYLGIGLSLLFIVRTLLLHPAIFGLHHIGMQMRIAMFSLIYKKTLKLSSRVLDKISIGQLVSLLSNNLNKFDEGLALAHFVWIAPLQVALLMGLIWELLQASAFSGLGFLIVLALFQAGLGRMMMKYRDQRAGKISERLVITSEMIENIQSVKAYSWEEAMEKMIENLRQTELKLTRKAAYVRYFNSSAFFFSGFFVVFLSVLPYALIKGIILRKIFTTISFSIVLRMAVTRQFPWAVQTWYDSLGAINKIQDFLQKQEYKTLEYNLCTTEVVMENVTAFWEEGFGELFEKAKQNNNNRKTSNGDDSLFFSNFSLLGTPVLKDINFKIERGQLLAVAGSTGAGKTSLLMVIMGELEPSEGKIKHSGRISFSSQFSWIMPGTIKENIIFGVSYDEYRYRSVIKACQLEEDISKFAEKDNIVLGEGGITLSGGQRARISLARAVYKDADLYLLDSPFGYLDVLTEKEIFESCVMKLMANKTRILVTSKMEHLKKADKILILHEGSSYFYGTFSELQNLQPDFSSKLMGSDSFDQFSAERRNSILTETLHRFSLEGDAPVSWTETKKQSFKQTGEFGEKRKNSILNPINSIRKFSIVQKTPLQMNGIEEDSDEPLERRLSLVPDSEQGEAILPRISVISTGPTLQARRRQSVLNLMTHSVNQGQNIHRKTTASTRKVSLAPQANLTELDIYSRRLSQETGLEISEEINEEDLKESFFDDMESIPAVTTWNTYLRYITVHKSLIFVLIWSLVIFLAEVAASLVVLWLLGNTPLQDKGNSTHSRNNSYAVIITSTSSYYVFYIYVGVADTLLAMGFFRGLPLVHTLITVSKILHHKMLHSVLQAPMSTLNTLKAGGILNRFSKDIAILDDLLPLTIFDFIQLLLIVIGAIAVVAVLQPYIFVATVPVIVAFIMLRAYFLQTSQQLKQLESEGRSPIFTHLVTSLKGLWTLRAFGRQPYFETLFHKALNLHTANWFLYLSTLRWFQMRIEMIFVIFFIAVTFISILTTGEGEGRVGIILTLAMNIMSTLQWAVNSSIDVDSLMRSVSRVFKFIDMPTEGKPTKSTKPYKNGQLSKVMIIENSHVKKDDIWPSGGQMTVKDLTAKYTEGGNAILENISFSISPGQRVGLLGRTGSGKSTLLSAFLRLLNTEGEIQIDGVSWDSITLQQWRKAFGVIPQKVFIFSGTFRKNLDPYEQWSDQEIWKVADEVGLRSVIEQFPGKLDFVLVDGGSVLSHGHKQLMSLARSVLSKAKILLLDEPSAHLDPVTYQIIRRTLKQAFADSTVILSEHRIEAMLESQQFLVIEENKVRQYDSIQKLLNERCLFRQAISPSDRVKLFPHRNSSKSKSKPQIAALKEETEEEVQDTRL

CFTR R347D = test system: CFTR R347D; design: method as in PMID 18366345; details: cited from earlier work
T1142I CFTR = target: T8, T1142I CFTR (Homo sapiens, UniProt P13569, T1142I); assay: Inside-out excised patch titration, T1142I CFTR; assay type: biochemical; details: inside-out patches, 3 mM ATP, Hill coefficient fixed to 1
T8 construct: expressed in transfected cells; host or cells: CHO-K1 (ATCC CCL-61)
T8 sequence (P13569 whole entry T1142I): as the sequence (P13569 whole entry) above, with T1142I counted along it

CFTR = test system: CFTR; design: method as in PMID 36949202; details: cited from earlier work; for effect on channel activity: by increasing pore opening while the NBDs are dimerized

T1 sequence (P13569 whole entry S1141A): as the sequence (P13569 whole entry) above, with S1141A counted along it

SMILES	effect of S1141A substitution on inhibitory potency (S1141A CFTR)	reduction of macroscopic current (WT CFTR [1]; 10 µM CFTRinh-172, PKA-phosphorylated)	IC50 (WT CFTR [1]; WT CFTR, Hill coefficient fixed to 1)	decrease in potency on substitution of R347 with alanine (CFTR R347A)	open probability (WT CFTR [2]; 10 µM CFTRinh-172, 3 mM ATP, -150 mV, mean and SE, 0.21 ± 0.05 without inhibitor)	mean open dwell time (WT CFTR [2]; with CFTRinh-172, 3 mM ATP, 487 ± 92 ms without inhibitor)	inhibition of macroscopic current relative to WT CFTR (CFTR (E1371Q) [3])	cholera toxin-induced intestinal fluid secretion [4]	change of Michaelis-Menten constant (Km) for ATP [5]	saturating ATP turnover (kcat) ([5]; 22.0 ± 2.2 without inhibitor)	IC50 (K95A CFTR)	effect on conformational dynamics (CFTR (E1371Q) [6])	open probability (CFTR (E1371Q) [7])	cyst growth (cyst growth)	effect on dwell time of the NBD-dimerized state (WT CFTR [8])	effect on probability of NBD dimerization (WT CFTR [8])	effect of R347D substitution on inhibition (CFTR R347D)	IC50 (T1142I CFTR)	effect on channel activity (CFTR)	effect on ATP turnover (CFTR)
O=C(O)c1ccc(/C=C2\SC(=S)N(c3cccc(C(F)(F)F)c3)C2=O)cc1 [CFTRinh-172]	no effect on inhibitory potency	96%	0.6 ± 0.1 µM	over 30 fold	0.007 ± 0.003	109 ± 14 ms	comparable level of inhibition	block cholera toxin-induced intestinal fluid secretion	not significantly changed	5.2 ± 1.0 ATP/protein/min	3.5 ± 0.9 µM	did not affect	0.0011 ± 0.0004	suppress cyst growth	did not significantly affect	did not significantly affect	nearly eliminated its inhibitory effect	5.3 ± 3.1 µM	–	–
CC1(C)Cc2c(sc(NC(=O)c3ccn[nH]3)c2C(N)=O)C(C)(C)O1 [GLPG1837, N-(3-Carbamoyl-5,5,7,7-tetramethyl-5,7-dihydro-4H-thieno[2,3-c]pyran-2-yl)-lH-pyrazole-5-carboxamide]	–	–	–	–	–	–	–	–	–	–	–	–	–	–	–	–	–	–	enhance channel activity	increase ATP turnover
CC(C)(C)c1cc(C(C)(C)C)c(NC(=O)c2c[nH]c3ccccc3c2=O)cc1O [Ivacaftor, N-(2,4-Di-tert-butyl-5-hydroxyphenyl)-4-oxo-1,4-dihydroquinoline-3-carboxamide]	–	–	–	–	–	–	–	–	–	–	–	–	–	–	–	–	–	–	enhance channel activity	increase ATP turnover
